Source: patent US12522594B2, “2-heteroaryl-3-oxo-2,3-dihydropyridazine-4-carboxamides for the treatment of cancer” (Deutsches Krebsforschungszentrum, priority 2017, dated 2026)
Values joined by “and” are separate entries in the source; they are usually repeats but may differ in a detail not shown here. Equal entries are not always repeated.

How the values were obtained:
human monocytes = assay: In vitro assay 4: rescue of TNFα production from human primary monocytes (LPS + KA); type: cell-based; conditions: one value per donor
B16F10-OVA cells [1] = assay: In vivo assay: efficacy of an example compound and a PD-1/-L1 axis antagonist, B16F10-OVA tumor in C57/BL6N mice; design: species or system mouse; conditions: tumor volume treatment/control; single agent plus vehicle or isotype; AhR antagonist 30 mg/kg QD p.o.; aPDL1 (TPP-3911) 10 mg/kg q3d i.p.
Text: In Vivo Assay: Efficacy of Compositions Comprising an Example Compound and a PD-1/-L1 Axis Antagonist
Animals are ordered from Charles River Sulzfeld, Germany and assigned to the study at the age of 7 weeks. Animal husbandry, feeding and health conditions are according to animal welfare guidelines. B16F10-OVA cells are B16F10 mouse melanoma cells that were virally transduced to express ovalbumin. […] The antibiotic blasticidin is removed 1 passage before inoculation. Female C57/BL6N mice were inoculated with 100000 B16F100VA tumor cells in 50% medium/50% matrigel subcutaneously in the flank. After 5 days the animals were randomized and therapeutic treatment started.
The anti-PDL1 antibody is a chimera of the variable domain of atezolizumab with murine IgG1 CH1, 2 and 3 domains.

B16F10-OVA cells [2] = assay: In vivo assay: efficacy of an example compound and a CTLA4 axis antagonist, B16F10-OVA tumor in C57/BL6J mice; design: species or system mouse; conditions: tumor volume treatment/control; single agent plus vehicle or isotype; AhR antagonist 30 mg/kg QD p.o.; aCTLA4 1 mg/kg q3d i.p.
Procedure: In Vivo Assay: Efficacy of Compositions Comprising an Example Compound and a CTLA4 Axis Antagonist
Animals are ordered from Charles River Sulzfeld, Germany and assigned to the study at the age of 8 weeks. Animal husbandry, feeding and health conditions are according to animal welfare guidelines. B16F10-OVA cells are B16F10 mouse melanoma cells that were virally transduced to express ovalbumin. B16F10-OVA cells were cultivated with RPMI 1640 with 10% FCS+2.5 μg/ml blasticidin and splitted at least 3 times before inoculation. The antibiotic blasticidin is removed 1 passage before inoculation. Female C57/BL6J mice were inoculated with 10000 B16F10-OVA tumor cells in 50% medium/50% matrigel subcutaneously in the flank. After 7 days the animals were randomized and therapeutic treatment started on day 8. The AhR antagonists were dissolved in Ethanol/Solutol/Water (10/40/50) and given at 30 mg/kg, QD, p.o. The anti-CTLA4 antibody was dosed at 1 mg/kg, q3d, i.p. The anti-CTLA4 antibody is mouse-specific with syrian hamster IgG1 isotype (Clone: 9H10 (anti mouse CTLA4), Fa. BioXCell BE0131). […]
Tumor size was measured using calipers determining length (a) and width (b). Tumor volume was calculated according to: […]
Based on tumor volume efficacy was calculated dividing tumor volume of the respective treatment group by tumor volume of the control group (T/C).

AHR [3] = biological target: T1, AHR (Homo sapiens, UniProt P35869); assay: In vitro assay 2: agonism in human cell line (transactivation assay, U87 cells, DRE firefly luciferase reporter); type: cell-based; design: host or cells: U87 glioblastoma cells, stably transfected with DRE firefly luciferase and renilla reporter constructs; conditions: no kynurenic acid, 20 hours, read-out: Assay 2: AHR-luc Hum Agonism IC50
T1 sequence (P35869 11-848): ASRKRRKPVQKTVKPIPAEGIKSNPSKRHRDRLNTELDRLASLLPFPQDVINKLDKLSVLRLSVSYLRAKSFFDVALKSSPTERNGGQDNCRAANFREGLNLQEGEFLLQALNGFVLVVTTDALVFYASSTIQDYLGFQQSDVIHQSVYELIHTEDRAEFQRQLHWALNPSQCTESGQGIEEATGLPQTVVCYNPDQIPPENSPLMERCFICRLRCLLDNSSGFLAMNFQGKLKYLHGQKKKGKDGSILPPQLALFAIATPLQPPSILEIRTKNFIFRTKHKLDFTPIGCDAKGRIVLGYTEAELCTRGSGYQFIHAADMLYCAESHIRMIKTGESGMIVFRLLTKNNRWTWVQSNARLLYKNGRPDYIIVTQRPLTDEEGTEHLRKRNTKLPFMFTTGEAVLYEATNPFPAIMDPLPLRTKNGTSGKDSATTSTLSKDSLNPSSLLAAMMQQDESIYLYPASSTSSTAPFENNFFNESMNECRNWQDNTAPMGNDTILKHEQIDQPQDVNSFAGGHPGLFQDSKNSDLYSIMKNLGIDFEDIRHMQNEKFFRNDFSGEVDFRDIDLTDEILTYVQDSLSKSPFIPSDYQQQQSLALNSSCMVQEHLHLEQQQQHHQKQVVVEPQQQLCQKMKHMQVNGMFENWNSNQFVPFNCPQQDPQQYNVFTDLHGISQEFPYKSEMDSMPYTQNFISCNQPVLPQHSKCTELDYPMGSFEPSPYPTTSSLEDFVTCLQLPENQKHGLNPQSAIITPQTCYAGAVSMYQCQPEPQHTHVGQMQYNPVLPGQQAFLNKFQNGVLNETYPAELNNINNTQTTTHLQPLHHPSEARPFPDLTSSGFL
In short: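 U87 glioblastoma cells with endogenous AHR, stably carrying DRE-driven firefly luciferase and constitutive renilla reporters. 300 uM kynurenic acid served as positive activation control; data normalized to positive and negative controls.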

AHR [4] = biological target: T1, AHR; assay: In vitro assay 3: AHR-regulated CYP1A1 expression in human cell line (U937, qPCR, KA stimulation); type: cell-based; conditions: U937 cells, 200 uM KA, 6 hours, CYP1A1 expression by qPCR; read-out: Assay 3: Hum CYP1A1 Antagonism IC50
In short: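 U937 human monocytic cells were stimulated with 200 uM KA for 6 h, with or without compound at eight concentrations from 1 nM to 3 uM, in duplicate. CYP1A1 mRNA was quantified by Taqman qPCR as fold expression normalised to HPRT. Unstimulated cells served as negative control.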

AHR [5] = biological target: T1, AHR; assay: In vitro assay 1: antagonism in human cell line (transactivation assay, U87 cells prestimulated with kynurenic acid, DRE firefly luciferase reporter); type: cell-based; design: host or cells: U87 glioblastoma cells, stably transfected with DRE firefly luciferase and renilla reporter constructs; conditions: 150 uM kynurenic acid, 20 hours, read-out: Assay 1: AHR-luc Hum Antagonism IC50
In short: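 U87 glioblastoma cells with endogenous AHR, stably carrying a DRE-driven firefly luciferase reporter and a constitutive renilla reporter. Cells prestimulated with the AHR agonist kynurenic acid before compound addition; data normalized to positive and negative controls.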

Structure (SMILES) | Individual Donors Conc of highest rescue (human monocytes; concentration (of 1, 0.3, 0.1 uM tested) at which highest TNFα rescue was observed) [µM] | Individual Donors % rescue TNFα normalised to ref cmpd (human monocytes; human monocytes, 10 ng/mL LPS + 200 uM KA, 18 hours, highest percent rescue relative to highest rescue with GNF-351) | T/C (B16F10-OVA cells [1]) | T/C (B16F10-OVA cells [2]) | IC50 (AHR [3]) [nM] | IC50 (AHR [4]) [nM] | IC50 (AHR [5]) [nM]
C[C@@H](CO)NC(=O)c1cc(-c2ccc(Cl)cc2)nn(-c2cnn(C)c2)c1=O [Example 17, 6-(4-Chlorophenyl)-N-[(2S)-1-hydroxypropan-2-yl]-2-(1-methyl-1H-pyrazol-4-yl)-3-oxo-2,3-dihydropyridazine-4-carboxamide] | 1 | 438% and 296% | 0.92 | 0.90 |  |  | 
O=C(NC[C@H](O)C(F)(F)F)c1cc(-c2ccc(OC(F)(F)F)cc2)nn(-c2cccnc2)c1=O [Example 131, 3-Oxo-2-(pyridin-3-yl)-N-[(2S)-3,3,3-trifluoro-2-hydroxypropyl]-6-[4-(trifluoromethoxy)phenyl]-2,3-dihydropyridazine-4-carboxamide] |  |  |  | 1.05 | > 20000 | 7.29 | 6.23
